Source: patent US6537267B1, “Method for chronic catheterization of the common bile duct of a laboratory rat” (priority 2001, dated 2003)

Assay: Determination of maximal biliary ICG excretion rate
Type: in vivo, rat
Description: Bile was obtained through the bile catheter by inserting a 23-gauge infusion set needle (Abbott Laboratories) from which all but 0.5 in of tubing had been removed, and approximately 24 inches of saline-filled PE 60 tubing attached. A sterile 1.5 mL sampling tube was attached to the tubing end, and bile was withdrawn by suspending the sampling tube below the cage using negative pressure. Bile was collected into tared sampling tubes at 5 minute intervals during a 90 minute period during which ICG was infused into the IVC at 50 μg/minute. ICG, 1 mL/h was delivered by a Razel Scientific (Stamford, Conn.) infusion pump with a 3 mL Becton Dickinson (Franklin Lakes, N.J.) syringe.
Bile flow rate was calculated using the net sampling tube weight assuming a bile density of 1 g/mL. A total of 10 μL of bile from each sample tube was aliquoted to determine ICG concentration. The remainder of the bile was infused into the duodenal catheter to maintain enterohepatic circulation of bile acids. Biliary ICG concentrations were measured spectrophotometrically at wavelength 805 nm. Biliary ICG excretion was calculated for each 5 minute interval by multiplying the bile flow rate by the biliary ICG concentration.
To establish a sensitive and reliable measure of hepatic dysfunction, the maximal biliary ICG excretion rate under physiologic conditions was determined. This measure, which detected even minor changes in biliary ICG excretion, was critical to subsequent primary studies. The animals were anesthetized with ketamine (60 mg/kg) and xylazine (5 mg/kg) intramuscularly. […] The blood concentrations and biliary excretion rates of ICG was measured during a constant infusion of ICG at 10, 20, 50, 100, and 200 μg/minute for 90 minutes in 8 rats that served as their own controls for the different doses on separate days. […] Biliary ICG excretion was measured as described above. Aortic blood samples (0.25 mL) were collected every 10 minutes and analyzed for ICG concentration. Following each blood draw, the animals were transfused with an equal volume of blood obtained immediately prior to transfusion from other untreated chronically catheterized rats that were previously designated as donors. […] After an initial 30 minute equilibration period mean biliary ICG excretion remained at a steady state concentration between 30 and 90 minutes of ICG infusion. […] The bile flow rate was unaffected by any of the tested ICG concentrations.

[1] = ICG infusion 100 and 200 μg/minute

effect of ICG on bile flow rate (any of the tested ICG concentrations (10-200 μg/minute)): unaffected | equilibration period before steady state biliary ICG excretion (constant ICG infusion): 30 min
Compound: CC1(C)C(/C=C/C=C/C=C/C=C2\N(CCCCS(=O)(=O)O)c3ccc4ccccc4c3C2(C)C)=[N+](CCCCS(=O)(=O)[O-])c2ccc3ccccc3c21 [ICG, Indocyanine green]
biliary ICG excretion rate between 30 and 90 minutes vs 50 μg/minute [1]: did not yield a greater biliary ICG excretion rate | mean blood ICG concentrations between 30 and 90 minutes vs 50 μg/minute [1]: significantly increase mean blood ICG concentrations
